Measurements from patent publication US20260191968A1, “PROTAC DEGRADERS OF MLLT1 AND/OR MLLT3” (DARK BLUE THERAPEUTICS LTD, priority 2024, published 2026).

What was measured:
MLLT1 = molecular target: T1, MLLT1 (Homo sapiens, UniProt Q03111); assay: MLLT1 degradation assay in MV4-11 cells (JESS chemiluminescent detection), three concentrations, 24 h; format: cell-based; conditions: with respect to DMSO control
T1 construct: host or cells: MV4-11
T1 sequence (Q03111 1-559): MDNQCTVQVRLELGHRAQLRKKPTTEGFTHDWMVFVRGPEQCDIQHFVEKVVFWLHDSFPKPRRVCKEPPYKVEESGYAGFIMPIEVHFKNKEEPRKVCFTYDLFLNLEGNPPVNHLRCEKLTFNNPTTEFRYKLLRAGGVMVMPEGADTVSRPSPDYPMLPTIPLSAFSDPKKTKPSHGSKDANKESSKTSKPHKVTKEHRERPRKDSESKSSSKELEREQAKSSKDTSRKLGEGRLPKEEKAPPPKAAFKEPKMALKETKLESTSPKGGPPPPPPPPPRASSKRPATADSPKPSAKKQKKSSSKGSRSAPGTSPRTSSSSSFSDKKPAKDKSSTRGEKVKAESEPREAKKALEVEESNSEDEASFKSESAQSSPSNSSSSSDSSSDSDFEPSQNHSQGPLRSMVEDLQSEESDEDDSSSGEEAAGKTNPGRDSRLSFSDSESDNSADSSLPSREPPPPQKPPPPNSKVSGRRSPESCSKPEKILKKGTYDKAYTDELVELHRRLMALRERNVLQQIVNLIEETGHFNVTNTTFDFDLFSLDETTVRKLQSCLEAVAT
In short: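 MV4-11 cells treated 24 h at 37° C, 5% CO2 with 1000, 100 and 10 nM compound (0.1% DMSO final). MLLT1 quantified by automated capillary chemiluminescent immunodetection; band peak area expressed as % degradation relative to DMSO control.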

MV4-11 cells = assay: MV4-11 cellular proliferative assay, Assay Format B (CTG 2.0, 168 h); format: cell-based; conditions: Homo sapiens, 168 h (7 days), CTG 2.0, read-out: IC50 (MV4-11 cellular proliferative assay, Assay format B)
In short: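 MV4-11 cells seeded overnight in IMDM + 10% FBS, then exposed to 10-point, 3-fold dilutions from 1 uM or 100 nM top concentration (0.3% DMSO final) for 168 h at 37 °C. CTG 2.0 luminescence read; % viability vs DMSO control fitted by four-parameter logistic regression.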

MLLT1% Degradation @ 0.01 μM (MLLT1)	MLLT1% Degradation @ 0.1 μM (MLLT1)	MLLT1% Degradation @ 1 μM (MLLT1)	IC50 (MV4-11 cells) [nM]	Structure (SMILES)
A (Category A: A ≥ 75% degradation)	A (Category A: A ≥ 75% degradation)	A (Category A: A ≥ 75% degradation)	≤ 100	CN1CCC[C@@H]1c1cc2cnc(NC(=O)c3ccc(OCCN4CCN(c5cccc6c5CN(C5CCC(=O)NC5=O)C6=O)CC4)cc3)cc2[nH]1 (stereo partly drawn) [Example 142, 4-(2-(4-(2-(2,6-dioxopiperidin-3-yl)-1-oxoisoindolin-4-yl)piperazin-1-yl)ethoxy)-N-(2-((R)-1-methylpyrrolidin-2-yl)-1H-pyrrolo[3,2-c]pyridin-6-yl)benzamide]
A (Category A: A ≥ 75% degradation)	A (Category A: A ≥ 75% degradation)	A (Category A: A ≥ 75% degradation)	≤ 100	CN1CCC[C@@H]1c1cc2cnc(NC(=O)c3ccc(N4CCC(OCC5CCN(c6cccc7c6CN(C6CCC(=O)NC6=O)C7=O)CC5)CC4)nc3)cc2[nH]1 (stereo partly drawn) [Example 147, 6-(4-((1-(2-(2,6-dioxopiperidin-3-yl)-1-oxoisoindolin-4-yl)piperidin-4-yl)methoxy)piperidin-1-yl)-N-(2-((R)-1-methylpyrrolidin-2-yl)-1H-pyrrolo[3,2-c]pyridin-6-yl)nicotinamide]
A (Category A: A ≥ 75% degradation)	A (Category A: A ≥ 75% degradation)	A (Category A: A ≥ 75% degradation)	≤ 100	CN1CCC[C@@H]1c1cc2cnc(NC(=O)c3cnc(N4CCC(CC#Cc5cccc6c5CN(C5CCC(=O)NC5=O)C6=O)CC4)cn3)cc2[nH]1 (stereo partly drawn) [Example 154, 5-(4-(3-(2-(2,6-dioxopiperidin-3-yl)-1-oxoisoindolin-4-yl)prop-2-yn-1-yl)piperidin-1-yl)-N-(2-((R)-1-methylpyrrolidin-2-yl)-1H-pyrrolo[3,2-c]pyridin-6-yl)pyrazine-2-carboxamide]

The remaining lines, values behind:

Structure (SMILES)	MLLT1% Degradation @ 0.01 μM (MLLT1)	MLLT1% Degradation @ 0.1 μM (MLLT1)	MLLT1% Degradation @ 1 μM (MLLT1)	IC50 (MV4-11 cells) [nM]
CN1CCC[C@@H]1c1cc2cnc(NC(=O)c3ccc(N4CCC(CCN5CCN(c6cccc7c6CN(C6CCC(=O)NC6=O)C7=O)CC5)CC4)nc3)cc2[nH]1 (stereo partly drawn) [Example 138, 6-(4-(2-(4-(2-(2,6-dioxopiperidin-3-yl)-1-oxoisoindolin-4-yl)piperazin-1-yl)ethyl)piperidin-1-yl)-N-(2-((R)-1-methylpyrrolidin-2-yl)-1H-pyrrolo[3,2-c]pyridin-6-yl)nicotinamide]	A (Category A: A ≥ 75% degradation)	A (Category A: A ≥ 75% degradation)	A (Category A: A ≥ 75% degradation)	≤ 100
CN1CCC[C@@H]1c1cc2cnc(NC(=O)c3ccc(N4CCC(COC5CCN(c6cccc7c6CN(C6CCC(=O)NC6=O)C7=O)CC5)CC4)nc3)cc2[nH]1 (stereo partly drawn) [Example 140, 6-(4-(((1-(2-(2,6-dioxopiperidin-3-yl)-1-oxoisoindolin-4-yl)piperidin-4-yl)oxy)methyl)piperidin-1-yl)-N-(2-((R)-1-methylpyrrolidin-2-yl)-1H-pyrrolo[3,2-c]pyridin-6-yl)nicotinamide]	B (Category B: 50% ≤ B < 75% degradation)	A (Category A: A ≥ 75% degradation)	A (Category A: A ≥ 75% degradation)	≤ 100
CN1CCC[C@@H]1c1cc2cnc(NC(=O)c3ccc(OCCN4CCC(c5cccc6c5CN(C5CCC(=O)NC5=O)C6=O)CC4)cc3)cc2[nH]1 (stereo partly drawn) [Example 141, 4-(2-(4-(2-(2,6-dioxopiperidin-3-yl)-1-oxoisoindolin-4-yl)piperidin-1-yl)ethoxy)-N-(2-((R)-1-methylpyrrolidin-2-yl)-1H-pyrrolo[3,2-c]pyridin-6-yl)benzamide]	A (Category A: A ≥ 75% degradation)	A (Category A: A ≥ 75% degradation)	A (Category A: A ≥ 75% degradation)	≤ 100
CN1CCC[C@@H]1c1cc2cnc(NC(=O)c3ccc(OC4CCN(CC5CCN(c6ccc7c(c6)CN(C6CCC(=O)NC6=O)C7=O)CC5)CC4)cc3)cc2[nH]1 (stereo partly drawn) [Example 143, 4-((1-((1-(2-(2,6-dioxopiperidin-3-yl)-1-oxoisoindolin-5-yl)piperidin-4-yl)methyl)piperidin-4-yl)oxy)-N-(2-((R)-1-methylpyrrolidin-2-yl)-1H-pyrrolo[3,2-c]pyridin-6-yl)benzamide]	A (Category A: A ≥ 75% degradation)	A (Category A: A ≥ 75% degradation)	A (Category A: A ≥ 75% degradation)	≤ 100
CN1CCC[C@@H]1c1cc2cnc(NC(=O)c3ccc(OC4CCN(CC5CCN(c6cccc7c6C(=O)N(C6CCC(=O)NC6=O)C7=O)CC5)CC4)cc3)cc2[nH]1 (stereo partly drawn) [Example 144, 4-((1-((1-(2-(2,6-dioxopiperidin-3-yl)-1,3-dioxoisoindolin-4-yl)piperidin-4-yl)methyl)piperidin-4-yl)oxy)-N-(2-((R)-1-methylpyrrolidin-2-yl)-1H-pyrrolo[3,2-c]pyridin-6-yl)benzamide]	B (Category B: 50% ≤ B < 75% degradation)	A (Category A: A ≥ 75% degradation)	A (Category A: A ≥ 75% degradation)	≤ 100
CN1CCC[C@@H]1c1cc2cnc(NC(=O)c3ccc(N4CCC(OC5CCN(c6cccc7c6CN(C6CCC(=O)NC6=O)C7=O)CC5)CC4)nc3)cc2[nH]1 (stereo partly drawn) [Example 145, 6-(4-((1-(2-(2,6-dioxopiperidin-3-yl)-1-oxoisoindolin-4-yl)piperidin-4-yl)oxy)piperidin-1-yl)-N-(2-((R)-1-methylpyrrolidin-2-yl)-1H-pyrrolo[3,2-c]pyridin-6-yl)nicotinamide]	A (Category A: A ≥ 75% degradation)	A (Category A: A ≥ 75% degradation)	A (Category A: A ≥ 75% degradation)	≤ 100
CN1CCC[C@@H]1c1cc2cnc(NC(=O)c3ccc(N4CCC(OC5CCN(c6cccc7c6C(=O)N(C6CCC(=O)NC6=O)C7=O)CC5)CC4)nc3)cc2[nH]1 (stereo partly drawn) [Example 148, 6-(4-((1-(2-(2,6-dioxopiperidin-3-yl)-1,3-dioxoisoindolin-4-yl)piperidin-4-yl)oxy)piperidin-1-yl)-N-(2-((R)-1-methylpyrrolidin-2-yl)-1H-pyrrolo[3,2-c]pyridin-6-yl)nicotinamide]	A (Category A: A ≥ 75% degradation)	A (Category A: A ≥ 75% degradation)	A (Category A: A ≥ 75% degradation)	≤ 100
CN1CCC[C@@H]1c1cc2cnc(NC(=O)c3ccc(N4CCN(CCCC#Cc5cccc6c5CN(C5CCC(=O)NC5=O)C6=O)CC4)nc3)cc2[nH]1 (stereo partly drawn) [Example 149, 6-(4-(5-(2-(2,6-dioxopiperidin-3-yl)-1-oxoisoindolin-4-yl)pent-4-yn-1-yl)piperazin-1-yl)-N-(2-((R)-1-methylpyrrolidin-2-yl)-1H-pyrrolo[3,2-c]pyridin-6-yl)nicotinamide]	A (Category A: A ≥ 75% degradation)	A (Category A: A ≥ 75% degradation)	A (Category A: A ≥ 75% degradation)	≤ 100
CN1CCC[C@@H]1c1cc2cnc(NC(=O)c3ccc(OCCCC#Cc4cccc5c4CN(C4CCC(=O)NC4=O)C5=O)nc3)cc2[nH]1 (stereo partly drawn) [Example 150, 6-((5-(2-(2,6-dioxopiperidin-3-yl)-1-oxoisoindolin-4-yl)pent-4-yn-1-yl)oxy)-N-(2-((R)-1-methylpyrrolidin-2-yl)-1H-pyrrolo[3,2-c]pyridin-6-yl)nicotinamide]	A (Category A: A ≥ 75% degradation)	A (Category A: A ≥ 75% degradation)	A (Category A: A ≥ 75% degradation)	≤ 100
CN1CCC[C@@H]1c1cc2cnc(NC(=O)c3ccc(N4CCC(CC#Cc5cccc6c5CN(C5CCC(=O)NC5=O)C6=O)CC4)nn3)cc2[nH]1 (stereo partly drawn) [Example 153, 6-(4-(3-(2-(2,6-dioxopiperidin-3-yl)-1-oxoisoindolin-4-yl)prop-2-yn-1-yl)piperidin-1-yl)-N-(2-((R)-1-methylpyrrolidin-2-yl)-1H-pyrrolo[3,2-c]pyridin-6-yl)pyridazine-3-carboxamide]	A (Category A: A ≥ 75% degradation)	A (Category A: A ≥ 75% degradation)	A (Category A: A ≥ 75% degradation)	≤ 100
